Laboratory results as given in BindingDB's records for doi:10.1210/edrv-16-4-427 (University of Pennsylvania, 1995).
Peptide text beside a SMILES is read from it.

Experiments:
[1] = target: Somatostatin receptor type 3 (Homo sapiens, UniProt P32745)
[2] = target: Somatostatin receptor type 2 (Homo sapiens, UniProt P30874)
[3] = target: Somatostatin receptor type 4 (Homo sapiens, UniProt P31391)
Chain of Somatostatin receptor type 4 (P31391 whole entry): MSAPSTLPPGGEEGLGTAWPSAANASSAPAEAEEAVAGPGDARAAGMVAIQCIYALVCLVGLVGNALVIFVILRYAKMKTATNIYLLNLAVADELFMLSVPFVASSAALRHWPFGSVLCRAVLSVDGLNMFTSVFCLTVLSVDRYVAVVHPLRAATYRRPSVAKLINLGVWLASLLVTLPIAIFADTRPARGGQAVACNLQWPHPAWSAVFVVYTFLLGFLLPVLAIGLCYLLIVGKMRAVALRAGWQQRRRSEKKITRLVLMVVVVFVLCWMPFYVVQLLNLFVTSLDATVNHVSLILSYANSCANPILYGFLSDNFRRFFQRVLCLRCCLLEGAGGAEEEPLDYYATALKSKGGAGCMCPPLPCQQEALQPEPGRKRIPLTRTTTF

Chain of Somatostatin receptor type 3 (P32745 whole entry): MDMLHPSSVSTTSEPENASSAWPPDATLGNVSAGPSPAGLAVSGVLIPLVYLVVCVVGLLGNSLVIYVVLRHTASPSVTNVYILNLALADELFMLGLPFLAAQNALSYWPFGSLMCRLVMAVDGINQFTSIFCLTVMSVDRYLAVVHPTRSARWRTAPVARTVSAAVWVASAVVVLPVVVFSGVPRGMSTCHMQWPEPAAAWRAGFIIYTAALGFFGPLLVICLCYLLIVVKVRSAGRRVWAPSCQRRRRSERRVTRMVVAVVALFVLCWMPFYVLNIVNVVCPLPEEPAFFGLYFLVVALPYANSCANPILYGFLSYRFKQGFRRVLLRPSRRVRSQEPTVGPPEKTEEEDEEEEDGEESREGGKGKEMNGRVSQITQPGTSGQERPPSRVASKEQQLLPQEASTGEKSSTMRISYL
Chain of Somatostatin receptor type 2 (P30874 whole entry): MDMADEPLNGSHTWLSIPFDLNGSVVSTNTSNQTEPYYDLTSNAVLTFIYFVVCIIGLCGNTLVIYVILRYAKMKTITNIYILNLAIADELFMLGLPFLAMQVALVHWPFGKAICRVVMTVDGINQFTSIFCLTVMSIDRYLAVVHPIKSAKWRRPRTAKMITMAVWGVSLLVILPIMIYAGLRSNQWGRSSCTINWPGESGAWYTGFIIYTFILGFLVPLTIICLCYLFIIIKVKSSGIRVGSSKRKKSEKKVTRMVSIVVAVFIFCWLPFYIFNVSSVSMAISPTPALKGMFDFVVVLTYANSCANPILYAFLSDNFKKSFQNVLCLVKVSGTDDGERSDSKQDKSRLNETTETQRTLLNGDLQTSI

## CC(C)[C@@H]1NC(=O)[C@H](CCCCN)NC(=O)[C@@H](Cc2c[nH]c3ccccc23)NC(=O)[C@H](Cc2ccc(O)cc2)NC(=O)[C@H](C)N(C)C(=O)[C@H](Cc2ccccc2)NC1=O [CAS_3086456]
[1]
  Ki: 268 nM

## C[C@@H](O)[C@@H]1NC(=O)[C@H](Cc2ccc(O)cc2)NC(=O)[C@H]([C@@H](C)O)NC(=O)[C@H](CCCCN)NC(=O)[C@H](Cc2c[nH]c3ccccc23)NC(=O)[C@H](Cc2ccccc2)NC(=O)[C@H](Cc2ccccc2)NC(=O)[C@H](CC(N)=O)NC(=O)[C@H](CCCCN)NC(=O)CCCCC[C@@H](C(=O)O)NC(=O)[C@H](CO)NC1=O [CGP-23996] (HELM PEPTIDE1{K.N.F.F.W.K.T.Y.T.S.[O=C(O)[C@H](CCCCCC(=O)[*:3])N[*:1]]}$PEPTIDE1,PEPTIDE1,1:R1-11:R3$$$V2.0)
[2]
  Ki: 1 nM
[3]
  Ki: 4.7 nM
[1]
  Ki: 0.6 nM
